Earlier results in patent US10154980B2, “Anti-inflammatory omega-3 synergistic combinations” (LYCORED LTD., priority 2013, dated 2018).

Tested on: NO production
Settings: background, literature references

SMILES	inhibit NO production
CC1=C[C@H](O)CC(C)(C)[C@H]1/C=C/C(C)=C/C=C/C(C)=C/C=C/C=C(C)/C=C/C=C(C)/C=C/C1=C(C)C[C@@H](O)CC1(C)C [lutein, (3R,3′R, 6′R)-beta,epsilon-carotene-3,3′-diol]	shown to inhibit NO production
CC(C)=CCC/C(C)=C/C=C/C(C)=C/C=C/C(C)=C/C=C/C=C(C)/C=C/C=C(C)/C=C/C=C(\C)CCC=C(C)C [lycopene]	shown to inhibit NO production
